Like-named read-outs stand apart in the source and are kept apart here.
Assays:
[1] = Physicochemical properties extracted from databases
From the text: Triptans are a relatively homogeneous group of drug compounds with similar physicochemical properties, including molecular weights < 400 g/mol and a low to moderate lipophilicity (cLogD values ranging from − 2.1–0.18). […] As a consequence, it is unlikely that triptans cross the brain microvascular endothelium through passive diffusion to a clinically relevant extent. Table 1 summarizes structures and physicochemical properties of the triptans, as well as oxycodone and pyrilamine, which are two prototypical H^+/OC antiporter substrates included in this study.

H^+/OC antiporter [2] = test: Concentration-dependent cellular uptake into hCMEC/D3 cells (Michaelis-Menten kinetics); assay type: cell-based, human
Procedure: The immortalized human cerebral microvascular endothelial cell line (hCMEC/D3) was maintained in T75-flasks coated with collagen type I from calf skin (C9791, 18.7 μg/mL) and cultured in EBM®-2 medium (Lonza, Basel, Schweiz) supplemented with 5% (v/v) fetal bovine serum (FBS, 10270, Life Technologies, CA, USA or SH3008803, ThermoFisher Scientific, MA, USA), 100 U/mL penicillin and 100 μg/ml streptomycin, 1 ng/mL human basic fibroblast growth factor (bFGF), 1.4 μM hydrocortisone, 1% (v/v) chemically defined lipid concentrate (ThermoFisher Scientific, MA, USA), 10 mM N-2-hydroxyethylpiperazine-N-2-ethane sulfonic acid (HEPES) and 5 μg/mL ascorbic acid (5% CO2, 37 °C). […] For experiments, cells were seeded into 24-well plates (6.7·10^4 cells/cm^2) and cultured for four continuous days. The cells were used for experiments between passage 3–31.
The cells were equilibrated in hHBSS with or without inhibitor for 15 min (37 °C, 90 rpm). The compound of interest was spiked into the hHBSS followed by incubation for a designated time. The timeframe of the initial uptake rate was validated into hCMEC/D3 cells (Fig. 1 and Additional file 1). The experiment was terminated by washing three times with ice-cold HBSS supplemented with 0.0375% (v/v) sodium bicarbonate.
To assess the concentration-dependent uptake, the uptake flux was fitted to the Michaelis–Menten equation, Eq. 1.1 Jss=Jmax[S]/Km+[S] where Jss represents flux under steady state, Jmax is the maximal flux, [S] is the substrate concentration, and Km is the Michaelis–Menten constant.
The hCMEC/D3 cells were used for concentration-dependent uptake studies between passage 21–23 (pyrilamine), 11–13 (oxycodone), 12–14 (almotriptan), 16–18 (eletriptan), and 12–14 (sumatriptan).
The cells were permeabilized using 50% (v/v) acetonitrile (HPLC LC–MS grade, VWR International S.A.S, Soeborg, Denmark) in ultrapure water (ELGA, Buckinghamshire, England) for 10 min at room temperature. Thereafter, the cells were scraped off the bottom of the wells and transferred to HPLC vials. Samples from bidirectional transport experiments were transferred directly into HPLC vials. All samples were stored at – 18 °C for later analysis. Calibration curves with standards in the range of 1 or 5–1000 ng/mL were dissolved in 50% (v/v) acetonitrile in ultrapure water (ELGA, Buckinghamshire, England), or in hHBSS(-) for analysis of bidirectional transport samples.
Liquid chromatography tandem mass spectrometry (LC–MS/MS) were performed using electrospray ionization in positive mode on a micromass Quattro micro™ API tandem quadrupole mass spectrometer (Waters, MA, USA) or an Ultivo triple quadrupole mass spectrometer (Agilent Technologies, CA, USA) coupled to Agilent HPLC system 1100 Series or 1260 Series (Agilent Technologies, CA, USA California), respectively. Applied columns were an InfinityLab Poroshell 120 EC-C18 (3.0 × 50 mm; 2.7 micron, Agilent Technologies, CA, USA) or a Kinetex 2.6 μm XB-C18 (100 Å, 100 × 4.6 mm, Phenomenex Inc., CA, USA). An overview of applied HPLC and MS/MS parameters can be found in Additional file 2 and Additional file 3, respectively. The data acquisition software was MassLynx (V4.1, Waters, MA, USA).
The protein content of hCMEC/D3 cells was determined for normalization purposes. Cells were washed with ice-cold phosphate buffered saline following cell lysis in cell extraction buffer (FNN0011, Thermo Fisher Scientific, MA, USA) supplemented with 1 × cOmplete™ Protease Inhibitor Cocktail (04693116001, Roche, Basel, Schweiz), 1 mM phenylmethylsulfonyl fluoride, and […] for 30 min on ice.

H^+/OC antiporter [3] = test: Cellular uptake into hCMEC/D3 cells after intra- and extracellular pH manipulation; assay type: cell-based, human
[4] = In vivo brain distribution by neuropharmacokinetic assessment at steady state; parameters: species or system mice; conditions: for Kp at 2 h / concentration at 2 h: male, mouse; for Kp at 2 h: brain and plasma
Procedure: Male Abcb1a/Abcb1b-eKO1 (P-gp knockout) mice and FVB wild-type counterparts (18–24 g at arrival) were obtained from Shanghai Biomodel Organism Science & Technology Development Co. Ltd (Shanghai, China). […] Animals were housed in pairs in a temperature-controlled environment (20–24 °C) with lighting maintained under a 12-h light–dark cycle. Animals were habituated for at least seven days prior to surgery with free access to food and water.
In vivo experiments were conducted to assess the extent of the BBB transport of eletriptan and to elucidate the involvement of active transport processes. All mice were cannulated in the jugular vein for intravenous drug administration. Following surgery, the animals were allowed to recover for 3 days before administration of test compounds. Eletriptan HBr was dosed in P-gp knockout and wild type mice using a loading dose of 2 mg/kg (as bolus) followed by a 2-h constant rate infusion of 3 mg/kg (1.5 mg/kg/h) dissolved in 0.9% NaCl. […] Throughout all studies a dose volume of 10 mL/kg was applied. Serial blood samples were taken from the saphenous vein during the infusion to verify steady state and at the end of infusion. Terminal blood samples were collected from all animals. Brain samples were prepared by homogenization using ultrasonication as described previously [39] and analyzed together with the plasma samples using LC–MS/MS [39].
The total brain and plasma concentration partition coefficient (Kp) was calculated from Eq. 7.7 Kp=Ctot,brain,ss/Ctot,plasma,ss where Ctot,brain,ss and Ctot,plasma,ss is the total drug concentration at steady state in brain and plasma, respectively.
The unbound brain and plasma partition coefficient (Kp,uu) was derived from dividing the unbound brain concentration with the unbound plasma concentration at the end of infusion for each animal. The Kp,uu was calculated from Eq. 8.8 Kp,uu=Ctot,brain,ss·fu,brain/Ctot,plasma,ss·fu,plasma where fu,brain and fu,plasma is the fraction of unbound drug in the brain and plasma, respectively.

[5] = C57, mouse, 1 µM
From the text: (§1) C57 mice were used to prepare blank plasma and brain matrices throughout all binding studies.

[6] = parameters: method as in PMID 32173558; conditions: cited from earlier work
P-gp [7] = test system: P-gp; parameters: method as in PMID 12814962; conditions: brain Kp in wild type and mdr1a knockout mice; cited from earlier work
H^+/OC antiporter [8] = test system: H^+/OC antiporter; parameters: method as in PMID 35955563; conditions: trans-stimulation in hCMEC/D3 cells; cited from earlier work
in vitro = conditions: C57, mouse, plasma
From the text: as §1

[9] = pH 7.4; cited from earlier work
P-gp [10] = target: T1, P-gp (Homo sapiens, UniProt P08183); test: Bidirectional transport across IPEC-J2 MDR1 monolayers; conditions: pH 7.4
T1 sequence (P08183 whole entry): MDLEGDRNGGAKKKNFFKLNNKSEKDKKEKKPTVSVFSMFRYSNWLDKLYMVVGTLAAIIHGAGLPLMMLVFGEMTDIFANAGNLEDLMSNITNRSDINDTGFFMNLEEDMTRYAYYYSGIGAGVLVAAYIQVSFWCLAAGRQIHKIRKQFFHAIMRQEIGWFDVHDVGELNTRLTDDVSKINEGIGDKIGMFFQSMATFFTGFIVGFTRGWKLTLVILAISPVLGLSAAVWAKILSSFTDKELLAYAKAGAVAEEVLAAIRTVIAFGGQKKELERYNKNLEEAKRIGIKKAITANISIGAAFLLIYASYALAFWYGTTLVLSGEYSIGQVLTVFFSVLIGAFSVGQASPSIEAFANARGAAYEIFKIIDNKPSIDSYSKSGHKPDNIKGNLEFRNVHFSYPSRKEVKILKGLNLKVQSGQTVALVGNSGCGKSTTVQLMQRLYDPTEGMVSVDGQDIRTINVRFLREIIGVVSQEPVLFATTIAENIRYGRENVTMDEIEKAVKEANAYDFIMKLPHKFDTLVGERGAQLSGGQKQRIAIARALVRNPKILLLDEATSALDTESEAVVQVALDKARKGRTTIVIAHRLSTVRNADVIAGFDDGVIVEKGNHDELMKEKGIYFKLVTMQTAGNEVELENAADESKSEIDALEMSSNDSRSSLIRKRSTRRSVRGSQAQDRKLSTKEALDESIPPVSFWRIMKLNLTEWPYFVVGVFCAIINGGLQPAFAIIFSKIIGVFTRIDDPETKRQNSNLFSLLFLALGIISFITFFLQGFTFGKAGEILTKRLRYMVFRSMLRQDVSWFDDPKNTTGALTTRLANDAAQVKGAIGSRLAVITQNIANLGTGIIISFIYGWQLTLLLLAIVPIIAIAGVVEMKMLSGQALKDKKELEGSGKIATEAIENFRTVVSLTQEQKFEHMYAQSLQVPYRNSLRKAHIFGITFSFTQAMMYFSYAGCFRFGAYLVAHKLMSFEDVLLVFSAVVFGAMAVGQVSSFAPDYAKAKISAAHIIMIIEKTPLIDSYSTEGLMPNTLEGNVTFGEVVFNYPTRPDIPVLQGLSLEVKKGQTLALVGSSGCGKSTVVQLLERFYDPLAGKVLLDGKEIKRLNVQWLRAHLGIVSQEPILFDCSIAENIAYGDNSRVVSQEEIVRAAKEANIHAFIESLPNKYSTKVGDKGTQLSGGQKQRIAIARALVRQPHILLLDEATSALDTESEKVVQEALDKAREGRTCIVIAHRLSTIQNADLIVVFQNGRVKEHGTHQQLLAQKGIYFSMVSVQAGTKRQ
Procedure: The porcine ileum epithelial cell line IPEC-J2 transfected with human MDR1 [37] was maintained in T175-flasks and cultured in Dulbecco's Modified Eagle Medium/Nutrient Mixture F-12, supplemented with 10% (v/v) FBS (SH3008803, ThermoFisher Scientific, MA, USA), 100 U/mL penicillin and 100 μg/mL streptomycin, 2 mM L-glutamine, and 1 mM sodium pyruvate. The culture medium was supplemented with 2 µg/mL puromycin during maintenance. Culture media was changed every second or third day. Cells were passaged using trypsin–EDTA solution 10x (5–10 min, 5% CO2, 37 °C). For experiments, cells were either seeded into 24-well plates (1·10^5 cells/cm^2) and cultured for 2 days or seeded on Transwell® polyester inserts (3460, 1.12 cm^2, pore size 0.4 µm) (3.57·10^4 cells/cm^2) and cultured for 15–17 days. IPEC-J2 MDR1 cells were used for experiments between passage 2–4.
Bidirectional transport studies were conducted using IPEC-J2 MDR1 cell monolayers cultured on semipermeable Transwell® polyester inserts (Corning Inc., NY, USA, 3460, 1.12 cm^2, pore size 0.4 µm). The cells were washed twice with 37 °C hHBSS. […]
The accumulated amount of drug (Q) was calculated for each time-point using Eq. 3.3 Q=Vs∑n-1nCn-1+CnVt where Vs represents the sample volume, Vt the total volume of the receiver compartment, Cn is the concentration of the sample n.
Steady state flux (Jsteady state) was calculated as the slope of the linear part of the accumulated amount (Q) in the receiver compartment as function of time from Eq. 4.4 Jss=ΔQ/Δt·A where t represents time and A is the area of the permeable support.
The apparent permeability (Papp) was calculated from Eq. 5.5 Papp=Jss/Cdonor where Cdonor represents the initial concentration in the donor compartment.
Efflux ratios (ER) were calculated as the ratio of the apparent permeability in the basolateral to apical direction Papp(B-A) and the permeability in the apical to basolateral direction Papp(A-B) using Eq. 6.6 ER=PappB-A/Papp(A-B)

P-gp [11] = target: T1, P-gp; parameters: expressed in transfected cells; host or cells: IPEC-J2 (porcine ileum epithelial cell line); method as in PMID 12438524; conditions: MDR1-MDCKII cell line; cited from earlier work

CN1CCC[C@@H]1Cc1c[nH]c2ccc(CCS(=O)(=O)c3ccccc3)cc12 [Eletriptan]
Overall charge pH 7.4 [1]: Positive
Concentration-dependent uptake (saturability) (H^+/OC antiporter [2]; hCMEC/D3 cells, tested concentration range): reaching saturation within a 500 µM concentration
Association with H^+/OC antiporter (H^+/OC antiporter [2]; summary of uptake and inhibition studies in hCMEC/D3 cells): Substrate potent inhibitor
Jmax (H^+/OC antiporter [2]; uptake into hCMEC/D3 cells): 2.2 ± 0.7 nmol·min^−1·mg protein^−1
Km (H^+/OC antiporter [2]; uptake into hCMEC/D3 cells, read-out: Apparent Km): 89 ± 38 µM
Cellular uptake after intracellular alkalization (H^+/OC antiporter [3]; acute exposure to 30 mM NH4Cl vs control pH 7.4): decreased
Cellular uptake at extracellular acidification (H^+/OC antiporter [3]; extracellular pH 6.8 vs pH 7.4): did not affect
Cellular uptake at extracellular alkalization (H^+/OC antiporter [3]; extracellular pH 8.2 vs pH 7.4): slight decrease
Proton-gradient dependence of uptake (H^+/OC antiporter [3]; hCMEC/D3 cells): yes
Cellular uptake after intracellular acidification (H^+/OC antiporter [3]; preexposure to 30 mM NH4Cl followed by media change vs control): statistically significant increase
Increase of brain uptake (Kp, Kp,uu) in mdr1a/1b knockout vs wild type mice ([4]; knockout vs wild type): > 30 fold
Kp at 2 h ([4]; Abcb1a/Abcb1b-eKO1 (P-gp knockout), intravenous, mdr1a/1b knockout mice, steady state, read-out: Kp (C,brain/C,plasma)): 6.35 ± 0.91
Kp at 2 h ([4]; Abcb1a/Abcb1b-eKO1 (P-gp knockout), intravenous, mdr1a/1b knockout mice, steady state, read-out: Kp,uu (C,brain·fu,brain)/C,plasma·fu,plasma)): 1.32
concentration at 2 h ([4]; Abcb1a/Abcb1b-eKO1 (P-gp knockout), brain, intravenous, mdr1a/1b knockout mice, steady state, read-out: C,brain): 1450 ± 175 ng/mL
concentration at 2 h ([4]; Abcb1a/Abcb1b-eKO1 (P-gp knockout), plasma, iv, mdr1a/1b knockout mice, steady state, 2-h i.v. infusion, read-out: C,plasma): 229 ± 6 ng/mL
concentration at 2 h ([4]; FVB (wild type and Abcb1a/Abcb1b knockout), plasma, intravenous, bolus dose followed by 2-h constant infusion, read-out: Plasma concentrations at steady state): 259 ± 30 ng/mL
Kp at 2 h ([4]; FVB wild-type (eletriptan), C57BL/6N (diphenhydramine), intravenous, wild type mice, steady state, read-out: Kp (C,brain/C,plasma)): 0.17 ± 0.016
Kp at 2 h ([4]; FVB wild-type (eletriptan), C57BL/6N (diphenhydramine), intravenous, wild type mice, steady state, read-out: Kp,uu (C,brain·fu,brain)/C,plasma·fu,plasma)): 0.04
concentration at 2 h ([4]; FVB wild-type (eletriptan), C57BL/6N (diphenhydramine), brain, intravenous, wild type mice, steady state, read-out: C,brain): 41 ± 5 ng/mL
concentration at 2 h ([4]; FVB wild-type (eletriptan), C57BL/6N (diphenhydramine), plasma, iv, wild type mice, steady state, 2-h i.v. infusion, read-out: C,plasma): 240 ± 18 ng/mL
fu,plasma [5]: 40%
fu,brain ([5]; plasma): 8.3%
Clinically relevant human peak plasma concentrations [6]: 94 to 200 ng/mL
Clinically relevant plasma concentrations ([6]; human): 246 to 523 nM
P-gp substrate (P-gp [7]): substrates of P-gp
H^+/OC antiporter substrate (H^+/OC antiporter [8]): might be a substrate of the H^+/OC antiporter
fraction unbound at 1 µM (in vitro; fu,brain): 0.083
fraction unbound at 1 µM (in vitro; fu,plasma): 0.4
cLogD pH 7.4 [9]: 1.1
Papp A→B at 120 min, 50 µM (P-gp [10]): 0.82 ± 0.05 ×10⁻⁶ cm/s
Papp B→A at 120 min, 50 µM (P-gp [10]): 24 ± 2 ×10⁻⁶ cm/s
efflux ratio at 120 min, 50 µM (P-gp [10]): 28.9 ± 1.8
ER (P-gp [11]): 44.7
